# Columns and labels:
# [1] = molecular target: Beta-2 adrenergic receptor (Homo sapiens, UniProt P07550)
# Vasopressin V2 receptor = Vasopressin V2 receptor (Homo sapiens, UniProt P30518)
# [2] = molecular target: cGMP-inhibited 3',5'-cyclic phosphodiesterase 3A (Homo sapiens, UniProt Q14432); assay type: functional
# [3] = molecular target: T1, Prostaglandin G/H synthase 1 (Rattus norvegicus, UniProt Q63921); assay type: functional
# T1 sequence (Q63921 whole entry): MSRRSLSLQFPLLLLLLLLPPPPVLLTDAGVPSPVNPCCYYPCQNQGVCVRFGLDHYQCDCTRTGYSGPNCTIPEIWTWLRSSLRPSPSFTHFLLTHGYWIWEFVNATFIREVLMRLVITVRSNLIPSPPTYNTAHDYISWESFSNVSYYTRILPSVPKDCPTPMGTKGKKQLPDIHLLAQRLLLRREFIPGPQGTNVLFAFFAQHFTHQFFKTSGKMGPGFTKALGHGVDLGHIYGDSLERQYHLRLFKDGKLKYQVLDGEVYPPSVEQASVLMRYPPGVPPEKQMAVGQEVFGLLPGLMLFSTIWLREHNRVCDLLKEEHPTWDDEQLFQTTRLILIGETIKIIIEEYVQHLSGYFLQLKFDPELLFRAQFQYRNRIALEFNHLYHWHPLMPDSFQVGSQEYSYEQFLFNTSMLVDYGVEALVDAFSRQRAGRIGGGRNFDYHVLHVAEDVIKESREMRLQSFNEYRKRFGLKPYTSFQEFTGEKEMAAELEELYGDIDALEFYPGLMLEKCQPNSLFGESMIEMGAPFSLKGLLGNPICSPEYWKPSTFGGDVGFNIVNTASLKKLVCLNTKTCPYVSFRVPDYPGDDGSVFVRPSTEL
# Melanocortin receptor 4 = Melanocortin receptor 4 (Homo sapiens, UniProt P32245)
# Sequence of Melanocortin receptor 4 (P32245 whole entry): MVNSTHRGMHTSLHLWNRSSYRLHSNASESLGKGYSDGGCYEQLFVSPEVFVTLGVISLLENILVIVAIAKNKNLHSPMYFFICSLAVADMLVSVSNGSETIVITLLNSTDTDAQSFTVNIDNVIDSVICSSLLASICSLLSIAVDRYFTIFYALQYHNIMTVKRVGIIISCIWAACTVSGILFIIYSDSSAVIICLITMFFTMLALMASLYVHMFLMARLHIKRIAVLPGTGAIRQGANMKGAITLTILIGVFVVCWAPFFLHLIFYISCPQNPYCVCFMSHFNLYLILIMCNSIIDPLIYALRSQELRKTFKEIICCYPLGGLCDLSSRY
# [4] = molecular target: T2, Neuropeptide Y receptor type 1 (Homo sapiens, UniProt P25929)
# T2 sequence (P25929 whole entry): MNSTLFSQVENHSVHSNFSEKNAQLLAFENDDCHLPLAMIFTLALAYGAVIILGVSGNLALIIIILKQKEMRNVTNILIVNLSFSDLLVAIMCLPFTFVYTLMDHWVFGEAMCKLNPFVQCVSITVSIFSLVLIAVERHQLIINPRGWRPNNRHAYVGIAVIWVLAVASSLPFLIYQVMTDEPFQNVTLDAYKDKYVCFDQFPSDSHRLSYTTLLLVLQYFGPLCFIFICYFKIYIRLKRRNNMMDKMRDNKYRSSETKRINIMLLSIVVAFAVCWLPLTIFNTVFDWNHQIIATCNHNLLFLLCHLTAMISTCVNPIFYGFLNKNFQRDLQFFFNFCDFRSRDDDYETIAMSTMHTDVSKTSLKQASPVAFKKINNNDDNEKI
# Adenosine receptor A1 = molecular target: T3, Adenosine receptor A1 (Homo sapiens, UniProt P30542)
# T3 sequence (P30542 whole entry): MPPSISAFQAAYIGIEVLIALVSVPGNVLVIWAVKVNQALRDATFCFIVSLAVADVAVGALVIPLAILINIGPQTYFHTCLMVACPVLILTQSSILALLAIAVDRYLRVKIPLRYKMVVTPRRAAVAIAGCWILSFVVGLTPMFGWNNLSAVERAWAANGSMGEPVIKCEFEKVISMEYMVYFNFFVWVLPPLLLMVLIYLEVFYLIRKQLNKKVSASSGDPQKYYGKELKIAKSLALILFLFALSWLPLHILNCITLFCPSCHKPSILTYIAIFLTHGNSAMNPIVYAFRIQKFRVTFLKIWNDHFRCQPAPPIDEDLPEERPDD
# Adenosine receptor A3 = molecular target: T4, Adenosine receptor A3 (Homo sapiens, UniProt P0DMS8)
# T4 sequence (P0DMS8 whole entry): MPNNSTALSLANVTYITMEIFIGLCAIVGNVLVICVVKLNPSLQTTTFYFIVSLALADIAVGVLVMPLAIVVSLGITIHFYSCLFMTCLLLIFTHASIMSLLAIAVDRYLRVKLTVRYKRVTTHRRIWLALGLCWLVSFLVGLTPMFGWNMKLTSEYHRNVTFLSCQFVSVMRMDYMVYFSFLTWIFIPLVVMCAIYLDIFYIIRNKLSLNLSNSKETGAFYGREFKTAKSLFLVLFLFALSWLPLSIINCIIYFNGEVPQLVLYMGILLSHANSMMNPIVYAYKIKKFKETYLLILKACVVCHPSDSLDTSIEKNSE
# [5] = molecular target: T5, Gastrin/cholecystokinin type B receptor (Homo sapiens, UniProt P32239)
# T5 sequence (P32239 whole entry): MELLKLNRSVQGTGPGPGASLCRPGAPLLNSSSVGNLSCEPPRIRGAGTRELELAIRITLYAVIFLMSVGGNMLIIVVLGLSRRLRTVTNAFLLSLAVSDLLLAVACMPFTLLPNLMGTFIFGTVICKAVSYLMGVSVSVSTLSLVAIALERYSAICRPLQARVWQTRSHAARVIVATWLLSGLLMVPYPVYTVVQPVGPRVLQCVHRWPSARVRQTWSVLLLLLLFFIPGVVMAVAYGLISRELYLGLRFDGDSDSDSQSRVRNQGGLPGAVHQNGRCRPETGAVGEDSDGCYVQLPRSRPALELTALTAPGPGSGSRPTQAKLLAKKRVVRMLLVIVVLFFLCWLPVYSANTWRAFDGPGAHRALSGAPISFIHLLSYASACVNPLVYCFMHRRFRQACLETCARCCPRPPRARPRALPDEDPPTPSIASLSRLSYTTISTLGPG
# [6] = molecular target: T6, Alpha-1A adrenergic receptor (Homo sapiens, UniProt P35348); assay type: functional, cell-based
# T6 sequence (P35348 whole entry): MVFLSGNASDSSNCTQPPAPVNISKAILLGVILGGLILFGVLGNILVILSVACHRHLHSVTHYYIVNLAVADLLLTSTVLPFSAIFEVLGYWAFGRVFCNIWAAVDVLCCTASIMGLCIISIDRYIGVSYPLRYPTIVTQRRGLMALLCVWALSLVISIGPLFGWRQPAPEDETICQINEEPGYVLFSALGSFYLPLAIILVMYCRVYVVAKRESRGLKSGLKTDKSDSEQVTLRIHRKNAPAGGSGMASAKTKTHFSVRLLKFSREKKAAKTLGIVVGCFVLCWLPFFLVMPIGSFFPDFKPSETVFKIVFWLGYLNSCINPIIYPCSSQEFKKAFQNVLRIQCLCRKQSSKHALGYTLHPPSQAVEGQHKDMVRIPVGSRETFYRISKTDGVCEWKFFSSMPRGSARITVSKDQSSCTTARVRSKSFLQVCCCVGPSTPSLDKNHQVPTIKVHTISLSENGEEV
# Cannabinoid receptor 1 = Cannabinoid receptor 1 (Homo sapiens, UniProt P21554); assay type: functional, cell-based
# Sequence of Cannabinoid receptor 1 (P21554 whole entry): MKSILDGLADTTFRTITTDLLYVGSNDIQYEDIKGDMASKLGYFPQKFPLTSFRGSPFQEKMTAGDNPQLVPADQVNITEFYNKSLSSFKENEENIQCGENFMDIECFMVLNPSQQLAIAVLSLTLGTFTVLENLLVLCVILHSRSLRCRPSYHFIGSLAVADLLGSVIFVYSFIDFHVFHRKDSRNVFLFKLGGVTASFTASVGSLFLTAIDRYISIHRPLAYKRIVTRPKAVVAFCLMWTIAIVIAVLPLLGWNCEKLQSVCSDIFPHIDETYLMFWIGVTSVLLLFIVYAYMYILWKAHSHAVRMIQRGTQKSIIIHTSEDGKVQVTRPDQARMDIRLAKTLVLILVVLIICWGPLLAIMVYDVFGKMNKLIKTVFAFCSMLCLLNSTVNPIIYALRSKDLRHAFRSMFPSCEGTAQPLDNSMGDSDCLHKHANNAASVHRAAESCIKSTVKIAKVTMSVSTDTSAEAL
# Note: assay procedure not described here.
# Sequence of cGMP-inhibited 3',5'-cyclic phosphodiesterase 3A (Q14432 whole entry): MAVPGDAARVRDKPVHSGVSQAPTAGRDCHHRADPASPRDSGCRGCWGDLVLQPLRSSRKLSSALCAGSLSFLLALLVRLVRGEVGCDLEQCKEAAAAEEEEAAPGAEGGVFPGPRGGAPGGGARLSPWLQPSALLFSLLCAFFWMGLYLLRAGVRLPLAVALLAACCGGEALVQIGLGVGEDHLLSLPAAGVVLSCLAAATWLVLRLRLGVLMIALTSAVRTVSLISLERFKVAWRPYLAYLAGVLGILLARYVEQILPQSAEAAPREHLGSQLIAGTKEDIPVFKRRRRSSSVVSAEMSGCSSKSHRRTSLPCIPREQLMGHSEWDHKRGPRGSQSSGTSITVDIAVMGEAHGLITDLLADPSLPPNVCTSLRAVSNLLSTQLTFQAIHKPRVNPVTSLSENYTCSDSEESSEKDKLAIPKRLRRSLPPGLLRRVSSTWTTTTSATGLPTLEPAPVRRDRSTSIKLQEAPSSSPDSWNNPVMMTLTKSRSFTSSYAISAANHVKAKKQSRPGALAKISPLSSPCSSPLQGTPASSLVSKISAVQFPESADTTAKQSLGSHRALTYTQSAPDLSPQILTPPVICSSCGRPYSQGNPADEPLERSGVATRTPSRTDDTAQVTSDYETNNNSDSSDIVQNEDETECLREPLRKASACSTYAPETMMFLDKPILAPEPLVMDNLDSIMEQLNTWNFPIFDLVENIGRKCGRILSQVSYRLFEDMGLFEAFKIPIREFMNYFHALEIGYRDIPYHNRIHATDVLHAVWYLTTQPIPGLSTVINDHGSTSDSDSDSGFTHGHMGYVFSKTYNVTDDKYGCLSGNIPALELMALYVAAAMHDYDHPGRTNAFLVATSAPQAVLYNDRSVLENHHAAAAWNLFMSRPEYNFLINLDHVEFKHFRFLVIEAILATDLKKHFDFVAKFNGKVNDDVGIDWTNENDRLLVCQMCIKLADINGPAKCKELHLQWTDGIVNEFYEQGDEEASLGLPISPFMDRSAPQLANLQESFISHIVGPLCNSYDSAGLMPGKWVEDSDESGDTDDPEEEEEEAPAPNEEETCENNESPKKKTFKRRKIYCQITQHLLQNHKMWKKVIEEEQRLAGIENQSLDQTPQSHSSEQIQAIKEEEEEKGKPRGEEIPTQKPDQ
Molecule,AC50 [1],AC50 (Vasopressin V2 receptor),AC50 [2],AC50 [3],AC50 (Melanocortin receptor 4),AC50 [4],AC50 (Adenosine receptor A1),AC50 (Adenosine receptor A3),AC50 [5],AC50 [6],AC50 (Cannabinoid receptor 1)
O=C(O[C@H]1C[N+]2(CCCOc3ccccc3)CCC1CC2)C(O)(c1cccs1)c1cccs1 [ACLIDINIUM BROMIDE],> 10 µM,> 30 µM,> 30 µM,> 30 µM,> 30 µM,> 30 µM,> 30 µM,> 30 µM,> 30 µM,,
Nc1cc(N2CCCCC2)nc(N)[n+]1[O-] [MINOXIDIL],> 30 µM,> 30 µM,> 30 µM,> 30 µM,> 30 µM,,> 30 µM,> 30 µM,> 30 µM,> 30 µM,
CCN(CC)C(C)C(=O)c1ccccc1 (stereo not drawn) [DIETHYLPROPION],> 10 µM,> 30 µM,> 30 µM,> 30 µM,> 30 µM,> 30 µM,> 30 µM,> 30 µM,> 30 µM,> 30 µM,> 30 µM
N=C(N)NC(=O)Cc1c(Cl)cccc1Cl [GUANFACINE],> 10 µM,> 30 µM,> 30 µM,> 30 µM,> 30 µM,> 30 µM,> 30 µM,> 30 µM,> 30 µM,0.0245 µM,> 30 µM
COC(=O)[C@H]1[C@H]2C[C@@H]3c4[nH]c5ccccc5c4CCN3C[C@H]2C[C@@H](OC(=O)c2cc(OC)c(OC)c(OC)c2)[C@@H]1OC [DESERPIDINE],> 10 µM,> 30 µM,> 30 µM,34.3 µM,8.6 µM,> 30 µM,> 30 µM,15.8 µM,> 30 µM,,
C=C(c1ccccc1OCc1cccc(Cl)c1)n1ccnc1 [CROCONAZOLE],> 30 µM,> 30 µM,> 30 µM,21.1 µM,> 30 µM,> 30 µM,> 30 µM,11.5 µM,> 30 µM,> 30 µM,15 µM
CC1NCCOC1c1ccccc1 (stereo not drawn) [PHENMETRAZINE],> 10 µM,> 30 µM,> 30 µM,> 30 µM,> 30 µM,> 30 µM,> 30 µM,> 30 µM,> 30 µM,14 µM,> 30 µM
TEPRENONE,> 30 µM,> 30 µM,> 30 µM,16.1 µM,> 30 µM,,> 30 µM,> 30 µM,> 30 µM,> 30 µM,> 30 µM
CC(NC(C)(C)C)C(=O)c1cccc(Cl)c1 (stereo not drawn) [BUPROPION],> 10 µM,> 30 µM,,,> 30 µM,> 30 µM,> 30 µM,> 30 µM,> 30 µM,> 30 µM,> 30 µM
CC1=C(CC(=O)O)c2cc(F)ccc2/C1=C\c1ccc([S+](C)[O-])cc1 (stereo not drawn),> 10 µM,> 30 µM,> 30 µM,> 30 µM,> 30 µM,> 30 µM,> 30 µM,> 30 µM,> 30 µM,> 30 µM,> 30 µM
Nc1nc(Cl)nc2c1ncn2[C@@H]1O[C@H](CO)[C@@H](O)[C@@H]1F [CLOFARABINE],> 30 µM,> 30 µM,6.4 µM,> 30 µM,> 30 µM,> 30 µM,2.3 µM,18.2 µM,> 30 µM,,
Oc1cc(O)c2c(c1)O[C@H](c1ccc(O)c(O)c1)[C@@H](O)C2 [CIANIDANOL],> 10 µM,> 30 µM,> 30 µM,,> 30 µM,> 30 µM,> 30 µM,22.2 µM,> 30 µM,> 30 µM,> 30 µM
Cc1cnc(Nc2ccc(OCCN3CCCC3)cc2)nc1Nc1cccc(S(=O)(=O)NC(C)(C)C)c1 [FEDRATINIB],> 10 µM,> 30 µM,> 30 µM,> 30 µM,> 30 µM,> 30 µM,7.17 µM,6.83 µM,> 30 µM,,
COc1ccc2c3c1O[C@H]1C(=O)CC[C@H]4[C@@H](C2)N(C)CC[C@]314 [HYDROCODONE],> 10 µM,> 30 µM,> 30 µM,> 30 µM,> 30 µM,> 30 µM,> 30 µM,> 30 µM,> 30 µM,> 30 µM,
O=C1CN=C(c2ccccc2Cl)c2cc([N+](=O)[O-])ccc2N1 [CLONAZEPAM],> 10 µM,> 30 µM,> 30 µM,> 30 µM,> 30 µM,> 30 µM,> 30 µM,> 30 µM,> 30 µM,> 30 µM,
Cc1cccc(Nc2ccncc2S(=O)(=O)NC(=O)NC(C)C)c1 [TORSEMIDE],> 10 µM,> 30 µM,> 30 µM,> 10 µM,> 30 µM,> 30 µM,> 30 µM,> 30 µM,> 30 µM,,
OCC(CO)N[C@H]1C[C@](O)(CO)[C@@H](O)[C@H](O)[C@H]1O [VOGLIBOSE],> 30 µM,> 30 µM,> 30 µM,> 30 µM,> 30 µM,> 30 µM,> 30 µM,> 30 µM,> 30 µM,> 30 µM,
